Reference: patent publication US12636266B2 (Rivo Bio, Inc., priority 2024, dated 2026)

Tests used:
[1] = Z to E isomer conversion by NMR; format: physicochemical; details: shortly following synthesis
Method: Compound 5, described here with structure shown in Scheme 1, is the stable E isomer. However, the initial reaction in Scheme 1 with compound 5-1 produces both the E and Z isomers of 5-2b. Column chromatography was used to separate the isomers and each isomer was then carried through the next three reactions separately, to produce both compound 5 and its Z isomer.

[2] = target: T1, human recombinant 5-HT2A receptor (Homo sapiens, UniProt P28223); experiment: IPOne HTRF agonist assay, percent activity at 5-HT2A; format: cell-based; details: relative to 5-HT
T1 construct: host or cells: CHO-K1
T1 sequence (P28223 whole entry): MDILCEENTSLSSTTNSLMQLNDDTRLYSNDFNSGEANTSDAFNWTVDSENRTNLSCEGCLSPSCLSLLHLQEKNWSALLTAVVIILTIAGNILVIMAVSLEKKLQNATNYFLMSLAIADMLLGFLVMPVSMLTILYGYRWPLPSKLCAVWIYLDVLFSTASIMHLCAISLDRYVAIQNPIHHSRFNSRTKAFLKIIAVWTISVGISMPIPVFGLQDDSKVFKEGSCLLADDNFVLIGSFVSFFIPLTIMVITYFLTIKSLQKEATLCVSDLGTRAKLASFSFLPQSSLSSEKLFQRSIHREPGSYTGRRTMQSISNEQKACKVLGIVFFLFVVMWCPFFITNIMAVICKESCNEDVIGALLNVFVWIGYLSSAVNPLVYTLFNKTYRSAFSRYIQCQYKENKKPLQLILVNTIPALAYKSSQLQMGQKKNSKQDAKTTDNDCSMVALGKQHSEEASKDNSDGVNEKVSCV

[3] = target: T1, human recombinant 5-HT2A receptor; experiment: as above; format: cell-based; details: relative to a-Me-5-HT, CHO-K1 cells; for activation at 0.3 µM / activation at 30 µM: 1 h, read-out: Percent (a-Me-5-HT) Activity at 5-HT2A (30 uM/0.3 μM)
Method: Example 16: Percent (α-Me-5-HT) Activity at 5-HT2A Assay
Compounds were tested in the IPOne HTRF (Homogeneous Time Resolved Fluorescence) assay at Epics Therapeutics S.A. (Belgium). Briefly, CHO-K1 cells expressing human recombinant 5-HT2A receptor grown to mid-log phase in culture media without antibiotics were detached with PBS-EDTA, centrifuged and resuspended in medium without antibiotics buffer. 20,000 cells were distributed in a 96 well plate and incubated overnight at 37° C. with 5% CO2. For agonist testing (384-well, suspension), 5 μl of cells were dispensed on 5 μl of test compound or reference agonist in each well and the plate was incubated for 60 min. at 37° C. with 5% CO2. IP1-D2 reagent and anti-IP1 cryptate reagents were then dispensed in the wells and IP1 concentrations were then measured following the manufacturer recommendations.

Compound | Percent (a-Me-5-HT) Activity at 5-HT2A (30 uM/0.3 μM) ([3]; 0.3 μM (second value)) | Percent (a-Me-5-HT) Activity at 5-HT2A (30 uM/0.3 μM) ([3]; 30 uM (first value)) | further results
COc1ccc2c(c1)/C(=C\C=O)CC2 (single isomer, unassigned) [Z isomer of compound 5-4] | – | – | Z isomer converting to the E isomer (by NMR) [1]: 40%
COc1ccc2c(c1)/C(=C/CN(C)C)CC2 [Compound 5, N,N-Dimethyl[(E)-2-(6-methoxy-1-indanylidene)ethyl]amine] | 74% | 96% | Percent (5-HT) Activity at 5-HT2A (30 μM) [2]: 92%
COc1ccc2c(c1)/C(=C(\F)CN(C)C)CC2 [Compound 10, N,N-Dimethyl[(Z)-2-(6-methoxy-1-indanylidene)-2-fluoroethyl]amine] | 4% | 1% | –
COc1ccc2c(c1)/C(=C/CN1CCC1)CC2 [Compound 12, 1-[(E)-2-(6-Methoxy-1-indanylidene)ethyl]azetidine] | 27% | 47% | –
CN(C)C/C=C1\CCc2ccc3c(c21)CCO3 [Compound 14, N,N-Dimethyl[(E)-2-(3-oxa-1,2,6,7-tetrahydro-as-indacen-8-ylidene)ethyl]amine] | 6% | 33% | –
CN(C)C/C=C1\C=Cc2ccccc21 [Compound 22, N,N-Dimethyl[(E)-2-(1-indenylidene)ethyl]amine] | 5% | 49% | –
COc1ccc2c(c1)/C(=C(/F)CN(C)C)CC2 [Compound 23, N,N-Dimethyl[(E)-2-(6-methoxy-1-indanylidene)-2-fluoroethyl]amine] | – | – | activation at 0.3 µM ([3]; 0.3 μM (second value)): -1%; activation at 30 µM ([3]; 30 uM (first value)): -2%
C(/CN1CCC1)=C1/CCc2ccc3c(c21)CCO3 [Compound 24, 1-[(E)-2-(3-Oxa-1,2,6,7-tetrahydro-as-indacen-8-ylidene)ethyl]azetidine] | 17% | 38% | –
COc1ccc2c(c1)CC/C2=C\CN1CCC1 [Compound 25, 1-[(E)-2-(5-Methoxy-1-indanylidene)ethyl]azetidine] | – | – | activation at 0.3 µM ([3]; 0.3 μM (second value)): 0%; activation at 30 µM ([3]; 30 uM (first value)): -3%
COc1ccc2c(c1)CC/C2=C\CN(C)C [Compound 26, N,N-Dimethyl[(E)-2-(5-methoxy-1-indanylidene)ethyl]amine] | – | – | activation at 0.3 µM ([3]; 0.3 μM (second value)): 10%; activation at 30 µM ([3]; 30 uM (first value)): -1%
FC(F)(F)Oc1ccc2c(c1)/C(=C/CN1CCC1)CC2 [Compound 27, 1-[(E)-2-(6-Trifluoromethoxy-1-indanylidene)ethyl]azetidine] | 5% | 8% | –
C(/CN1CCC1)=C1/CCc2cccnc21 [Compound 28, 1-[(E)-2-(4-Aza-3-indanylidene)ethyl]azetidine] | 5/5% | 5/5% | –
COC1C/C(=C\CN)c2ccccc21 (stereo not shown) [Compound 29] | 6% | 53% | –
COC1C/C(=C\CN2CCC2)c2ccccc21 (stereo not shown) [Compound 30, 1-[(E)-2-(3-Methoxy-1-indanylidene)ethyl]azetidine] | 3% | 24% | –
CN(C)C/C=C1\CCc2sccc21 [Compound 31, N,N-Dimethyl[(E)-2-{2-thiabicyclo[3.3.0]octa-1(5),3-dien-6-ylidene}ethyl]amine] | 3% | 2% | –
CCC(N)/C=C1\CCc2ccccc21 (stereo not shown) [Compound 101, 1-[(E)-(1-Indanylidene)methyl]propylamine] | 15% | 20% | –
OCc1ccc2c(c1)/C(=C/CN1CCC1)CC2 [Compound 103, {(E)-3-[2-(1-Azetidinyl)ethylidene]-5-indanyl}methanol] | 9% | 94% | –
